Test results from ChEMBL document CHEMBL4419177, “Crystalline forms of a lysyl oxidase-like 2 inhibitor and methods of making” (2018).

How the values were obtained:
Type in all cases: physicochemical
[1] = Solubility of compound ( form 1 ) in 10 uL water at 10 mg; conditions: buffer
[2] = Solubility of compound ( form 1 ) in 150 uL water at 30 mg; conditions: buffer
[3] = Stability under 3 month accelerated condition (40 degC/75% RH ) assessed as changes in purity or absorption of moisture; conditions: 2191.5 h
[4] = Stability of the compound as a solid form exposed to light (max 365 nm) incubated for 24 hrs by HPLC analysis
[5] = Stability under 1-year ICH study conditions assessed as chemical or physical changes; conditions: 8766 h
[6] = Stability of the compound as a solid form exposed to heat at 50 degC incubated for 24 hrs by HPLC analysis
[7] = Stability under 2-year ICH study conditions assessed as chemical or physical changes; conditions: 17532 h
[8] = Stability of the compound as a solid form exposed to heat at 100 degC incubated for 24 hrs by HPLC analysis

Structure (SMILES) | solubility [1] | solubility [2] | Stability [3] | Stability [4] | Stability [5] | Stability [6] | Stability [7] | Stability [8]
Cl.NCc1cc(Oc2cccc(C(=O)N3C[C@@H](O)[C@H](F)C3)c2)nc(C(F)(F)F)c1 | Soluble | Soluble | Stable |  |  |  |  | 
CS(=O)(=O)O.NCc1cc(Oc2cccc(C(=O)N3C[C@@H](O)[C@H](F)C3)c2)nc(C(F)(F)F)c1 |  |  |  | Stable | Stable | Stable | Stable | Stable
